Experimental data published in article PMC12069692, “Pharmacological inhibition of PLK1/PRC1 triggers mitotic catastrophe and sensitizes lung cancers to chemotherapy” (Cell Death & Disease, 2025).

Molecular target: T1, PLK1 (Homo sapiens, UniProt P53350)
T1 construct: Recombinant PLK1 protein (Active Motif 81429) in SPR; Flag-PBD in Co-IP-MS
Assay: SPR (Biacore T200, immobilized PLK1); supported by T1rho NMR, CETSA, Co-IP-MS, in vitro kinase assay (IC50 […])
Type: binding

T1 sequence (P53350 2-603): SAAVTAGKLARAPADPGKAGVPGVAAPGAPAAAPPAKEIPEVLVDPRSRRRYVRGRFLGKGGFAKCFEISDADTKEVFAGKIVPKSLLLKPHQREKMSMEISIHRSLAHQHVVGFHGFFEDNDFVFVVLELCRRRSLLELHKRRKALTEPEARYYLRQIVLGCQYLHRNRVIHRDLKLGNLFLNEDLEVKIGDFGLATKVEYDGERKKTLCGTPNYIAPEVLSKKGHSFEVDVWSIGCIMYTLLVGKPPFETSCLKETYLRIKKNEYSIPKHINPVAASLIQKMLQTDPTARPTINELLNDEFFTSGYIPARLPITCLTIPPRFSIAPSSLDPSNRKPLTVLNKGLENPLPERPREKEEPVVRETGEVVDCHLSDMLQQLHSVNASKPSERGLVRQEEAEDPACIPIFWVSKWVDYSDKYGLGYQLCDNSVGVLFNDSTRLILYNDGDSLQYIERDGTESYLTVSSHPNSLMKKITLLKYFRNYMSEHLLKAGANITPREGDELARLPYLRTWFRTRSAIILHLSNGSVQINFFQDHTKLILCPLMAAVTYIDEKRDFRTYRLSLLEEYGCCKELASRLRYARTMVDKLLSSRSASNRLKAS

Compound: CN(C)CCN1C(=O)c2cccc3c(S(=O)(=O)NCc4ccc(C(F)(F)F)cc4)ccc(c23)C1=O [B4]
- Kd: ~5.6 µM
